Data: publication PMC11191402, “High-Affinity NIR-Fluorescent Inhibitors for Tumor Imaging via Carbonic Anhydrase IX” (Bioconjugate Chemistry, 2024)

Molecular target: T1, CAIX expressed in live HeLa cells (Homo sapiens, UniProt Q16790)
T1 construct: an open reading frame for the full-length CAIX protein (1–459 amino acids) without a tag; expressed in transfected cells; host or cells: HeLa cells transfected with pCMV-CAIX (TurboFect), normoxia
Assay: NIR-fluorescent compound dosing on live HeLa cells (direct binding)
Text: To measure NIR-fluorescent compound binding to CAIX expressed in cancer cells, the GZ22-4 compound was applied in different concentrations to live HeLa cells grown under hypoxia and normoxia, as described in the Materials and Methods section, and was previously performed for the fluorescein-conjugated CAIX inhibitor GZ19-32.[16] […] The difference was hidden in the low signal-to-noise ratio.
To increase the amount of CAIX expression, the HeLa cells were transfected with the CAIX-encoding plasmid pCMV-CAIX. There was a dramatic increase in CAIX expression observed both in the dosing curve and fluorescence microscopy results. […] In the case of transfection, we can see both the specific CAIX-dependent signal and relatively weak nonspecific binding of the dye to unknown targets at concentrations above approximately 1 μM (shown as a dashed curve, increasing at the same concentrations as the nontransfected cell dosing curve).
Fluorescence values corresponding to the transfection effect were obtained by subtraction of nontransfected values from transfected fluorescence values, showing the resultant data points as open squares. […] However, the determination of the Kd via dosing curves at such high protein concentrations is not accurate and can only serve as an estimate of affinity.
Both assays were performed as previously described.[16] In brief, to measure fluorescent compound binding to CAIX expressed in live cells, HeLa cells were seeded in 12-well plates and either incubated in hypoxia for 3 days or transfected with the CAIX-coding plasmid pCMV-CAIX next day after seeding. The TurboFect transfection reagent (Thermo Fisher) was used for transfection. […] 150 μL of the suspension from each well was transferred to Thermo Scientific Nunc MicroWell 96-Well Optical-Bottom Plates for fluorescence and absorbance measurements. 759 nm excitation and 800 nm emission wavelengths were used to measure fluorescence on a Synergy HTX, BioTek plate reader. 650 nm wavelength was used for absorbance measurements.

Kd (HeLa transfected with pCMV-CAIX, normoxia, nontransfected values subtracted, 120 nM CAIX, only an estimate of affinity, read-out: Kd from dosing curve on CAIX-transfected HeLa cells): 1 nM
concentration above which nonspecific binding of the dye to unknown targets is seen (transfected and nontransfected HeLa cell cultures): > 1 µM
SMILES: CC1(C)C(/C=C/C2=C(Oc3ccc(CCC(=O)NCCOCCOCCOCCOCCOCCOCCOCCOCCOCCOCCOCCNC(=O)CCS(=O)(=O)c4c(F)c(F)c(S(N)(=O)=O)c(F)c4NC4CCCCCCC4)cc3)C(=C/C=C3\N(CCCCS(=O)(=O)[O-])c4ccccc4C3(C)C)/CCC2)=[N+](CCCCS(=O)(=O)[O-])c2ccccc21.[Na+] [GZ22-4, Sodium 4-((Z)-2-((E)-2-(2-(4-(43-((2-(Cyclooctylamino)-3,5,6-trifluoro-4-sulfamoylphenyl)sulfonyl)-3,41-dioxo-7,10,13,16,19,22,25,28,31,34,37-undecaoxa-4,40-diazatritetracontyl)phenoxy)-3-((E)-2-(3,3-dimethyl-1-(4-sulfonatobutyl)-3H-indol-1-ium-2-yl)vinyl)cyclohex-2-en-1-ylidene)ethylidene)-3,3-dimethylindolin-1-yl)butane-1-sulfonate]
fluorescence signal in hypoxia vs normoxia (nontransfected live HeLa cells, plate reader): no difference in the fluorescence signal in hypoxia vs normoxia
